Several values for one entry are separate records, joined by “and”; a condition that tells them apart may be missing. Equal entries are not always repeated. Toxic doses and inconclusive results are not listed. No stated cut-off is given here; in the data, active means T/C of 150% or more; inactive means T/C below 125%.
Test system: L1210 leukemia ip in BDF1 mice, survival T/C
Experiment: NCI In Vivo Anticancer Drug Screen. Data for tumor model L1210 Leukemia (intraperitoneal) in B6D2F1 (BDF1) mice
Settings: higher = longer survival
How it was run: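 Read-out is survival time, reported as the treated-group measurement over the vehicle-control measurement.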

Measured: T/C

CN(N=O)C(=O)NC(C=O)C(O)C(O)C(O)CO (stereo not given)
inactive: endpoint: mean survival time, dose: 3.5 mg/kg/injection, schedule: Q#A X Z (ip), vehicle: saline 108 % of control | endpoint: mean survival time, dose: 4.0 mg/kg/injection, schedule: Q#A X Z (ip), vehicle: saline 105 % of control | endpoint: mean survival time, dose: 5.5 mg/kg/injection, schedule: Q#A X Z (ip), vehicle: saline 116 % of control | endpoint: mean survival time, dose: 6.0 mg/kg/injection, schedule: Q01DX Z (ip), vehicle: saline 105 % of control | endpoint: mean survival time, dose: 6.0 mg/kg/injection, schedule: Q#A X Z (ip), vehicle: saline 103 % of control | endpoint: mean survival time, dose: 8.0 mg/kg/injection, schedule: Q01DX Z (ip), vehicle: saline 97 % of control | endpoint: mean survival time, dose: 8.5 mg/kg/injection, schedule: Q#A X Z (ip), vehicle: saline 118 % of control | endpoint: mean survival time, dose: 9.0 mg/kg/injection, schedule: Q#A X Z (ip), vehicle: saline 106 % of control | endpoint: mean survival time, dose: 12.0 mg/kg/injection, schedule: Q01DX Z (ip), vehicle: saline 105 % of control and 106 % of control | endpoint: mean survival time, dose: 12.5 mg/kg/injection, schedule: Q01DX009 (ip), vehicle: saline 95 % of control and 101 % of control | endpoint: mean survival time, dose: 12.5 mg/kg/injection, schedule: Q01DX Z (ip), vehicle: saline 96 % of control and 101 % of control | endpoint: mean survival time, dose: 18.0 mg/kg/injection, schedule: Q01DX Z (ip), vehicle: saline 108 % of control | endpoint: mean survival time, dose: 24.5 mg/kg/injection, schedule: Q01DX Z (ip), vehicle: water 111 % of control | endpoint: mean survival time, dose: 25.0 mg/kg/injection, schedule: Q01DX009 (ip), vehicle: saline 101 % of control and 103 % of control | endpoint: mean survival time, dose: 25.0 mg/kg/injection, schedule: Q01DX Z (im), vehicle: saline 109 % of control | endpoint: mean survival time, dose: 26.0 mg/kg/injection, schedule: Q01DX Z (ip), vehicle: saline 118 % of control | endpoint: mean survival time, dose: 26.0 mg/kg/injection, schedule: Q01DX Z (sc), vehicle: saline 110 % of control | endpoint: mean survival time, dose: 30.0 mg/kg/injection, schedule: Q#A X Z (ip), vehicle: saline 112 % of control | endpoint: mean survival time, dose: 34.0 mg/kg/injection, schedule: Q03DX005 (ip), vehicle: saline 103 % of control | endpoint: mean survival time, dose: 36.0 mg/kg/injection, schedule: Q03DX003 (ip), vehicle: saline 118 % of control | endpoint: mean survival time, dose: 40.0 mg/kg/injection, schedule: Q01DX009 (iv), vehicle: saline 120 % of control | endpoint: mean survival time, dose: 40.0 mg/kg/injection, schedule: Q01DX Z (sc), vehicle: saline 106 % of control and 107 % of control and 112 % of control | endpoint: mean survival time, dose: 50.0 mg/kg/injection, schedule: Q01DX009 (ip), vehicle: saline 110 % of control and 111 % of control | endpoint: mean survival time, dose: 50.0 mg/kg/injection, schedule: Q01DX Z (im), vehicle: saline 100 % of control | endpoint: mean survival time, dose: 52.0 mg/kg/injection, schedule: Q03DX005 (ip), vehicle: saline 108 % of control | endpoint: mean survival time, dose: 60.0 mg/kg/injection, schedule: Q01DX009 (iv), vehicle: saline 111 % of control | endpoint: mean survival time, dose: 60.0 mg/kg/injection, schedule: Q01DX Z (iv), vehicle: saline 115 % of control | endpoint: mean survival time, dose: 78.0 mg/kg/injection, schedule: Q03DX005 (ip), vehicle: saline 118 % of control | endpoint: mean survival time, dose: 78.0 mg/kg/injection, schedule: Q03DX 5 (iv), vehicle: saline 117 % of control | endpoint: mean survival time, dose: 80.0 mg/kg/injection, schedule: Q07DX001 (ip), vehicle: saline 124 % of control | endpoint: mean survival time, dose: 90.0 mg/kg/injection, schedule: Q01DX 1 (iv), vehicle: saline 118 % of control | endpoint: mean survival time, dose: 90.0 mg/kg/injection, schedule: Q01DX009 (iv), vehicle: saline 115 % of control | endpoint: mean survival time, dose: 90.0 mg/kg/injection, schedule: Q01DX Z (iv), vehicle: saline 121 % of control | endpoint: mean survival time, dose: 90.0 mg/kg/injection, schedule: Q03DX 5 (iv), vehicle: saline 114 % of control | endpoint: mean survival time, dose: 90.0 mg/kg/injection, schedule: Q07DX 2 (iv), vehicle: saline 106 % of control | endpoint: mean survival time, dose: 99.5 mg/kg/injection, schedule: Q01DX Z (ip), vehicle: water 111 % of control | endpoint: mean survival time, dose: 100.0 mg/kg/injection, schedule: Q01DX009 (ip), vehicle: saline 101 % of control and 120 % of control | endpoint: mean survival time, dose: 100.0 mg/kg/injection, schedule: Q01DX Z (im), vehicle: saline 120 % of control and 124 % of control | endpoint: mean survival time, dose: 100.0 mg/kg/injection, schedule: Q01DX Z (oral), vehicle: saline 111 % of control | endpoint: mean survival time, dose: 104.0 mg/kg/injection, schedule: Q01DX Z (oral), vehicle: saline 101 % of control | endpoint: mean survival time, dose: 120.0 mg/kg/injection, schedule: Q01DX001 (ip), vehicle: saline 119 % of control | endpoint: mean survival time, dose: 120.0 mg/kg/injection, schedule: Q01DX 1 (iv), vehicle: saline 112 % of control | endpoint: mean survival time, dose: 120.0 mg/kg/injection, schedule: Q07DX 2 (iv), vehicle: saline 102 % of control | endpoint: mean survival time, dose: 125.0 mg/kg/injection, schedule: Q01DX001 (ip), vehicle: saline 114 % of control | endpoint: mean survival time, dose: 135.0 mg/kg/injection, schedule: Q01DX Z (iv), vehicle: saline 95 % of control | endpoint: mean survival time, dose: 135.0 mg/kg/injection, schedule: Q01DX Z (sc), vehicle: saline 108 % of control and 91 % of control and 92 % of control | endpoint: mean survival time, dose: 160.0 mg/kg/injection, schedule: Q01DX Z (oral), vehicle: saline 101 % of control | endpoint: mean survival time, dose: 180.0 mg/kg/injection, schedule: Q01DX 1 (iv), vehicle: saline 109 % of control | endpoint: mean survival time, dose: 180.0 mg/kg/injection, schedule: Q07DX 2 (iv), vehicle: saline 111 % of control | endpoint: mean survival time, dose: 182.0 mg/kg/injection, schedule: Q07DX Z (ip), vehicle: saline 123 % of control | endpoint: mean survival time, dose: 200.0 mg/kg/injection, schedule: Q01DX009 (ip), vehicle: saline 90 % of control | endpoint: mean survival time, dose: 200.0 mg/kg/injection, schedule: Q01DX Z (im), vehicle: saline 91 % of control | endpoint: mean survival time, dose: 200.0 mg/kg/injection, schedule: Q01DX Z (ip), vehicle: saline 87 % of control | endpoint: mean survival time, dose: 200.0 mg/kg/injection, schedule: Q01DX Z (oral), vehicle: saline 105 % of control | endpoint: mean survival time, dose: 240.0 mg/kg/injection, schedule: Q01DX Z (oral), vehicle: saline 101 % of control | endpoint: mean survival time, dose: 250.0 mg/kg/injection, schedule: Q01DX001 (ip), vehicle: saline 115 % of control | endpoint: mean survival time, dose: 270.0 mg/kg/injection, schedule: Q01DX 1 (iv), vehicle: saline 98 % of control | endpoint: mean survival time, dose: 270.0 mg/kg/injection, schedule: Q07DX 2 (iv), vehicle: saline 106 % of control | endpoint: mean survival time, dose: 400.0 mg/kg/injection, schedule: Q01DX Z (oral), vehicle: saline 117 % of control | endpoint: mean survival time, dose: 405.0 mg/kg/injection, schedule: Q01DX001 (ip), vehicle: saline 108 % of control and 89 % of control | endpoint: mean survival time, dose: 420.0 mg/kg/injection, schedule: Q07DX Z (ip), vehicle: saline 93 % of control | endpoint: mean survival time, dose: 500.0 mg/kg/injection, schedule: Q01DX001 (ip), vehicle: saline 117 % of control | endpoint: mean survival time, dose: 540.0 mg/kg/injection, schedule: Q01DX Z (oral), vehicle: saline 95 % of control | endpoint: mean survival time, dose: 800.0 mg/kg/injection, schedule: Q01DX Z (oral), vehicle: saline 105 % of control | endpoint: mean survival time, dose: 1000.0 mg/kg/injection, schedule: Q01DX001 (ip), vehicle: saline 97 % of control | endpoint: median survival time, dose: 25.0 mg/kg/injection, schedule: Q01DX017 (ip), vehicle: water 122 % of control
active: endpoint: mean survival time, dose: 40.0 mg/kg/injection, schedule: Q01DX Z (ip), vehicle: saline 151 % of control | endpoint: mean survival time, dose: 60.0 mg/kg/injection, schedule: Q01DX Z (ip), vehicle: saline 160 % of control | endpoint: mean survival time, dose: 80.0 mg/kg/injection, schedule: Q03DX004 (ip), vehicle: saline 151 % of control | endpoint: mean survival time, dose: 90.0 mg/kg/injection, schedule: Q01DX Z (ip), vehicle: saline 152 % of control and 166 % of control | endpoint: mean survival time, dose: 180.0 mg/kg/injection, schedule: Q03DX Z (ip), vehicle: saline 151 % of control | endpoint: median survival time, dose: 50.0 mg/kg/injection, schedule: Q01DX017 (ip), vehicle: water 150 % of control

CC(=O)C1(C)C(=O)N(S(=O)(=O)c2ccc(C)cc2)C(=O)N1S(=O)(=O)c1ccc(C)cc1 (stereo not given)
inactive: endpoint: mean survival time, dose: 100.0 mg/kg/injection, schedule: Q01DX001 (ip), vehicle: saline 91 % of control | endpoint: mean survival time, dose: 200.0 mg/kg/injection, schedule: Q01DX001 (ip), vehicle: saline 89 % of control | endpoint: mean survival time, dose: 400.0 mg/kg/injection, schedule: Q01DX001 (ip), vehicle: saline 100 % of control

— PubChem BioAssay AID248 (DTP/NCI, 2004)
